Columns and labels:
Type in all cases: cell-based, human
MCF7 cells [1] = experiment: Analysis of autophagy (LC3 localization, electron microscopy, autophagosomal proteolysis, GFP-LC3); details: 48 h
Procedure: FIGS. 6A to 6C. Effects of SLC6A14 blockade with α-MT in breast cancer cells. In FIG. 6A, MCF10A (a non-malignant mammary epithelial cell line), MCF7 (an ER-positive breast cancer cell line), and MB231 (an ER-negative breast cancer cell line) cells were treated with or without 2.5 mM α-MT for 24, 48, or 72 h and then used for analysis of asparagine synthetase (ASNS) and CHOP mRNA levels. In FIG. 6B, MCF7, MB231 and MCF10A cells were treated with or without 2.5 mM α-MT for 48 h and then used for immunocytochemical analysis of the constitutively expressed LC-3. In FIG. 6C, MCF7 cells were treated with (“b” and “c”) or without (“a”) α-MT (2.5 mM) for 48 h and then used for electron microscopy. Arrows indicate sequestration of cytoplasm and organelles in pre-autophagosomes and autophagosome, and the asterisk indicates condensed chromatin. N, nucleus.
FIGS. 7A and 7B. Induction of autophagy in MCF7 cells by α-MT. […] The concentrations of α-MT and 3-MA, when present, were 2.5 mM and 10 mM. The treatment time was 48 h. The extent of proteolysis was determined by the radioactivity present in the protein-free supernatant. […] In FIG. 7B, MCF7 cells were transfected with an GFP-LC3 expression plasmid, and 24 h later, the cells were treated with or without α-MT (2.5 mM) in the presence or absence of 3-MA (10 mM) for 48 h. At the end of the treatment, cells were fixed, and the percent of cells with punctate localization of the ectopically expressed GFP-LC3 was quantified. “a” represents compared to control; “b” represents compared to treatment with α-MT alone; and “c” represents compared to treatment with […]; *, p<0.001.
Analysis of autophagy. Autophagy was analyzed as described previously (Periyasamy-Thandavan et al., 2010, Autophagy; 6:19-35; and Samaddar et al., 2008, Mol Cancer Ther; 7:2977-2987) by monitoring the localization pattern of constitutively expressed LC3 as well as that of ectopically expressed GFP-LC3. In the case of the constitutively expressed LC3, cells were treated without or with α-MT, and then used for immunocytochemical analysis of LC3 localization pattern. For ectopically expressed LC3, cells were transfected with a GFP-LC3 expression plasmid. Briefly, cells were plated on a coverslip to reach ˜50% confluence and transfection of these cells was done with 1 μg of the plasmid using FuGENE transfection reagent (Roche, Nutley, N.J.). […] At the end of the treatment, cells were fixed with 4% paraformaldehyde and examined by fluorescence microscopy to count the number of cells with punctate GFP-LC3. Autophagosomal proteolysis was quantified as described previously (Periyasamy-Thandavan et al., 2010, Autophagy; 6:19-35). […]

MCF7 cells [2] = experiment: Apoptotic cell death by annexin V labeling; details: 48 h
Procedure: (§1) FIGS. 9A to 9D. Influence of α-MT on mTOR activity In FIG. 9A, MCF7 and MB231 cells were treated without or with α-MT (2.5 mM) for 24 h, 48 h, or 72 h, and then the cell lysates were used for western blot. Influence of α-MT with or without 3-MA on cell death. In FIG. 9B, MCF7, MB231, and MCF10A cells were treated for 48 h without or with α-MT (2.5 mM), 3-MA (10 mM), or α-MT (2.5 mM) plus 3-MA (10 mM), and then analyzed for cell death by propidium iodide (PI) staining and FACS-based cell cycle analysis. In FIG. 9C, MCF7 cells were treated for 48 h without or with α-MT (2.5 mM), 3-MA (10 mM), or α-MT (2.5 mM) plus 3-MA (10 mM), and then analyzed for apoptotic cell death by annexin V labeling. In FIG. 9D, MCF7 and MB231 cells were treated without or with 2.5 mM α-MT for 24 h, 48 h, or 72 h. Cell lysates were then used for western blot analysis of lamin A degradation product using an antibody that recognizes specifically the proteolytic cleavage product. β-Actin was used as an internal control.
(§2) Apoptosis assay. Fluorescence-activated cell sorting (FACS) was used to monitor cell death. MCF7 cells were treated with or without α-MT, 3-MA, or α-MT plus 3-MA. Control and treated cells were then fixed in 50% ethanol, treated with 0.1% sodium citrate, 1 mg/ml RNase A, and 50 μg/ml propidium iodide, and then subjected to FACS analysis (FACS Caliber, Becton Dickinson). FITC-labeled annexin V was used to differentiate apoptotic cell death from necrotic cell death.

MCF10A cells = experiment: Cell death by propidium iodide staining and FACS cell cycle analysis; details: α-MT 2.5 mM and 3-MA 10 mM, either alone or together, 48 h
Procedure: as §1, §2

MB231 cells = experiment: as above; details: MB231, α-MT 2.5 mM and 3-MA 10 mM, either alone or together, 48 h
Procedure: as §1, §2

BT474 cells = experiment: SLC6A14 and ER mRNA by RT-PCR after estradiol/antiestrogen treatment; details: 24 h
Procedure: (§3) FIGS. 2A-2C. Regulation of SLC6A14 expression by estrogen/ER. In FIG. 2A, ZR75.1 and BT474 cells were cultured for 5-6 passages in control medium (10% fetal bovine serum with phenol red) and phenol red-free medium (10% or 5% charcoal-stripped fetal bovine serum), and then the levels of ERa mRNA and SLC6A14 mRNA were determined by RT-PCR (P1, P2, P3, P4, P5, and P6 refer to passage numbers). In FIG. 2B, BT474 cells were treated with estradiol (10 nM) in the presence or absence of antiestrogens (1 μM) for 24 h, and then used for RT-PCR analysis of SLC6A14 mRNA and ERa mRNA (E2, estradiol; TAM, tamoxifen; 4-OH TAM, 4-hydroxytamoxifen; ICI 182780, FULVESTRANT™). […] Following the treatment, the reporter activity was measured. […]
(§4) Analysis of SLC6A14 as an estrogen/ER target. The influence of estrogen on SLC6A14 expression was assessed in ER-positive breast cancer cells (ZR75.1 and BT474) by culturing them for several passages in the absence of phenol red, and then monitoring the levels of SLC6A14 mRNA. […] Luciferase activity was measured in cell lysates using Luciferase Assay Reagent (Promega). β-galactosidase activity in the same cell lysates was used for normalization of the promoter activity for differences in transfection efficiency.

[3] = system: SLC6A14 promoter in BT474 cells; experiment: SLC6A14-promoter luciferase reporter assay; details: BT474, estradiol 10 nM, normalized with β-galactosidase activity
Procedure: as §3, §4

MCF7 cells [4] = experiment: SLC6A14 mRNA by RT-PCR in phenol red-free medium with or without estradiol; details: estradiol 10 nM, 24 h, versus absence of estradiol
Procedure: FIG. 11. Estrogen-dependent suppression of the efficacy of α-MT to induce ASNS and CHOP expression in MCF7 cells. MCF7 cells were cultured in a phenol red-free medium in the absence or presence of estradiol (E2, 10 nM) for 24 h and then treated without or with α-MT (2.5 mM, 24 h). The cells were then used for analysis of SLC6A14, asparagine synthetase (ASNS), and CHOP mRNA levels by RT-PCR. Hypoxanthine/guanine phosphoribosyltransferase-1 (HPRT1) mRNA levels were used as an internal control.
RT-PCR. Total RNA was isolated using TRIZOL™ (Invitrogen). 2 μg of RNA was reverse transcribed using the GeneAmp PCR System (Applied Biosystems, Branchburg, N.J.). PCR reaction was performed under optimal conditions specific for each of the primer pairs. GAPDH (glyceraldehyde-3-phosphate dehydrogenase) or HPRT1 (hypoxanthine/guanine phosphoribosyl transferase-1) were used as internal controls. PCR products were size-fractionated on agarose gel, stained with ethidium bromide and imaged using Alpha Imager (Santa Clara, Calif.). Densitometry was performed on PCR bands and normalized to the internal control. Normalized values were used to compare mRNA levels of target genes. Primers used for PCR were as follows.

Structure (SMILES): Cn1cnc(N)c2ncnc1-2 [3-MA, 3-methyladenine, reference compound]
- inhibition of α-MT-induced proteolysis of 14C-labeled proteins (MCF7 cells [1]; MCF7, cotreatment 3-MA 10 mM with α-MT 2.5 mM): inhibited significantly
- block of autophagy induced by α-MT (MCF7 cells [1]; MCF7 transfected with GFP-LC3, 3-MA 10 mM plus α-MT 2.5 mM): > 90%
- apoptotic cell death by annexin V labeling (MCF7 cells [2]; MCF7, 3-MA 10 mM combined with α-MT 2.5 mM, compared with either agent alone): much greater
- apoptotic cell death by annexin V labeling (MCF7 cells [2]; MCF7, single agent (α-MT 2.5 mM or 3-MA 10 mM)): significant apoptosis
- effect on cell death (MCF10A cells): very little, if any, effect
- effect on cell death (MB231 cells): very little, if any, effect

Structure (SMILES): C[C@]12CC[C@@H]3c4ccc(O)cc4CC[C@H]3[C@@H]1CC[C@@H]2O [estradiol]
- SLC6A14 mRNA levels (BT474 cells; BT474, estradiol 10 nM): increased
- expression of ER (BT474 cells; BT474, estradiol): did not have any noticeable effect
- enhancement of SLC6A14-promoter (luciferase) activity [3]: 6 fold
- expression of SLC6A14 (MCF7 cells [4]): higher
